Assay results: patent publication US7507739B2, “6-[(substituted)phenyl]triazolopyrimidines as anticancer agents” (Wyeth, priority 2003, dated 2009)

Legend:
COLO 205 cells = test: MTS cytotoxicity test with COLO 205 cells; format: cell-based, human; conditions: 3 days
Method: The assay, which is sold in kit form by Promega (Madison, Wis.; CellTiter 96 AQueous Non-Radioactive Cell Proliferation Assay), is based on the conversion by viable cells, but not by dead cells, of the tetrazolium salt, MTS (3-(4,5-dimethylthiazol-2-yl)-5-(3-carboxymethoxyphenyl)-2-(4-sulphophenyl)-2H-tetrazolium, inner salt), into a water-soluble colored formazan which is detected by spectrophotometry. Compounds are tested at nine concentrations, in order to determine IC50 values. For the test procedure, cells are harvested by trypsinization (or, in the case of non-adherent cells, by simple resuspension), washed, counted and distributed to wells of 96-well flat-bottom microtiter plates at 1000 cells per well in 200 μL of medium. In addition, one row of wells on a separate plate received cells as above (“time 0” plate). All plates are incubated at 37° in humidified 5% CO2 in air for about 24 hr.
On day 2, compounds for test are diluted and added to wells. Compounds are dissolved in DMSO at 10 mg/mL. For each compound, nine serial 2-fold dilutions are prepared in DMSO. Ten μL of each dilution in DMSO is transferred to 100 μL of medium, mixed well, and then 5 μL of this dilution is transferred in quadruplicate to wells containing cells. The final high concentration of each compound is typically 5 μM. Plates are returned to the incubator for three days. At the time of drug addition to the experimental plates, the MTS assay is run on the “time 0” plate. This produced the “time 0 MTS value” which is related to the number of viable cells per well at the time of drug addition.
After three days of culture with test compounds (day 5 overall), the MTS assay is done on all wells of the experimental plates. The absorbance values of the quadruplicate sample wells are averaged and divided by the average of the “time 0” values. The average of control wells without drug, divided by the average “time 0” value, gave the maximal relative increase in MTS color yield due to cell growth during the final three days of culture. The average of control wells with high drug concentration, divided by the “time 0” value, gave the minimal relative color yield for cells that are completely killed. The nine values for each compound are plotted against concentration, and the concentration that produced a relative color yield half way between the maximum and minimum is taken as the IC50 value.
COLO 205 is a human colon carcinoma cell line that is used for comparative testing of the examples of this invention and several reference compounds. This line is sensitive to paclitaxel and vincristine.

MAP-rich tubulin = test: Tubulin polymerization test with MAP-rich tubulin; format: biochemical, bovine; conditions: 0.3 μM compound, 20 min, fold enhancement over control
Method: Medium is RPMI-1640 with L-glutamine, supplemented with 10% heat-inactivated fetal calf serum, 100 units/ml penicillin, and 100 μg/ml streptomycin (Gibco, Grand Island, N.Y.). Microtubule-associated protein (MAP)-rich tubulin, containing about 70% tubulin and 30% MAPs (#ML113), and highly purified tubulin (>99% pure, #TL238), both from bovine brain, are obtained from Cytoskeleton, Inc., Denver, Colo. PEM buffer (80 mM piperazine-N,N′-bis[2-ethanesulfonic acid], pH 6.9, 1 mM ethylene glycol-bis(β-aminoethyl ether)-N,N,N′,N′-tetraacetic acid, 1 mM magnesium chloride) and guanosine 5′-triphosphate (GTP) are also obtained from Cytoskeleton. [3H]paclitaxel, specific activity 14.7 Ci/mmol, is purchased from Moravek Biochemicals (Brea, Calif.). [^3H]vinblastine, specific activity 9.60 Ci/mmol and MicroSpin G-50 columns are obtained from Amersham Biosciences (Piscataway, N.J.). […] Other reagents are obtained from Sigma (St. Louis, Mo.).
Two variations of this procedure are done, one using MAP-rich tubulin and one using pure tubulin.
MAP-rich tubulin is dissolved in ice-cold PEM buffer containing 1 mM GTP (GPEM buffer) at a concentration of 1.3 mg/mL. The solution is centrifuged at top speed in an Eppendorf model 5415C microcentrifuge (Brinkmann Instruments, Westbury, N.Y.) for 10 min at […] immediately before use. The tubulin solution is added to wells of a ½-area 96-well plate (Costar No. 3696, Corning, Inc., Corning, N.Y.) already containing the compounds of interest. Each compound is tested in duplicate at a final concentration of 0.3 μM in a volume of 110 μL per well. The final DMSO concentration in all wells is 0.3%. Control reactions, which received compound solvent only, are done in quadruplicate. The plate is put in a SpectraMax Plus plate reader (Molecular Devices Corp. Sunnyvale, Calif.) thermostated at 24° and the absorbance of each well at 340 nm, a measure of the appearance of turbidity due to tubulin polymer formation, is determined every minute for 60 minutes. The absorbance at time 0 for each well is subtracted from each of the subsequent absorbance readings for that well, and then the duplicates are averaged.
In this assay, control reactions with MAP-rich tubulin show an S-shaped absorbance profile characterized by three phases: first, a lag phase during which no change in absorbance occurs; second, a polymerization phase in which absorbance increases; and third, a plateau phase in which absorbance has reached a maximum and little or no further change occurs. Polymerization enhancers such as paclitaxel and docetaxel shorten or eliminate the lag phase, increase the rate of the polymerization phase, and often increase the height of the plateau. […] The compounds of this invention have a taxane-like effect on the polymerization reaction. This has been expressed quantitatively in Table 5 by dividing the mean A340 of each sample at 20 min by the mean A340 of the control at 20 min to give a fold enhancement over control. […] Examples of this invention have factors ranging up to 8.1, with the majority in the 5 to 6-fold range.

[1] = test system: DLD1 Human Colon Carcinoma; test: Human tumor xenograft test, DLD1; format: in vivo; conditions: DLD1, 15 mg/kg intravenously on days 1, 5, 9, and 13
Method: (§1) The ability of compounds of this invention to inhibit tumor growth in animals is studied in the athymic mouse xenograft standard pharmacological test. Female nu/nu mice in an outbred albino background are obtained from Charles River Laboratories (Wilmington, Mass.). Animals are injected subcutaneously on the flank with the desired tumor cell suspension. Several days later, mice with tumors of approximately 150 mm^3 are selected from those injected (staged) and randomly distributed into groups of 5-10. The day of staging is called day 0. Compounds of the invention, usually formulated in saline (exceptions are noted in tables), are administered to animals by intravenous injection or oral gavage on various schedules starting on day 0 or 1, as noted in the tables. The control group in each experiment is dosed with vehicle on the same schedule. Tumor size is measured every 3-7 days with calipers in two orthogonal dimensions, and tumor volume is calculated from the formula volume=[(length×width^2)/2].
(§2) Tumor/Control (T/C) is obtained by dividing the mean tumor volume of the treated group by the mean tumor volume of the control group on each measurement day. A treatment dose is defined as active if it produced a statistically significant T/C of 0.50 or less. A p value≦0.05, determined by one-side Student's t-test, is required for statistical significance. A treatment dose is defined as toxic if more than 10% of the animals died from a compound-related toxicity.

[2] = test system: A549 Human Non-Small Cell Lung Carcinoma; test: Human tumor xenograft test, A549; format: in vivo, athymic mice; conditions: A549, intravenously q4dX8 at 40 mg/kg
Method: as §1, §2

C[C@H](Nc1c(-c2c(F)cc(OCCCN3CCN(C)CC3)cc2F)c(Cl)nc2ncnn12)C(F)(F)F [Example 6, 5-Chloro-6-{2,6-difluoro-4-[3-(4-methylpiperazin-1-yl)propoxy]phenyl}-N-[(1S)-2,2,2-trifluoro-1-methylethyl][1,2,4]triazolo[1,5-a]pyrimidin-7-amine]
IC50 (COLO 205 cells; Homo sapiens, COLO 205, 72 h): 155 nM | A340 Compound/A340 Control (MAP-rich tubulin): 6.7

C[C@H](Nc1c(-c2c(F)cc(OCCCN3CCCCC3)cc2F)c(Cl)nc2ncnn12)C(F)(F)F [Example 10, 5-Chloro-6-[2,6-difluoro-4-(3-piperidin-1-ylpropoxy)phenyl]-N-[(1S)-2,2,2-trifluoro-1-methylethyl][1,2,4]triazolo[1,5-a]pyrimidin-7-amine]
IC50 (COLO 205 cells; Homo sapiens, COLO 205, 72 h): 113 nM | A340 Compound/A340 Control (MAP-rich tubulin): 6.3

CCN(C)CCCOc1cc(F)c(-c2c(Cl)nc3ncnn3c2N[C@@H](C)C(F)(F)F)c(F)c1 [Example 8, 5-Chloro-6-(4-{3-[ethyl(methyl)amino]propoxy}-2,6-difluorophenyl)-N-[(1S)-2,2,2-trifluoro-1-methylethyl][1,2,4]triazolo[1,5-a]pyrimidin-7-amine]
IC50 (COLO 205 cells; Homo sapiens, COLO 205, 72 h): 48 nM | A340 Compound/A340 Control (MAP-rich tubulin): 6.2

C[C@H](Nc1c(-c2c(F)cc(OCCCCN(C)C)cc2F)c(Cl)nc2ncnn12)C(F)(F)F [Example 15, 5-Chloro-6-{4-[4-(dimethylamino)butoxy]-2,6-difluorophenyl}-N-[(1S)-2,2,2-trifluoro-1-methylethyl][1,2,4]triazolo[1,5-a]pyrimidin-7-amine]
IC50 (COLO 205 cells; Homo sapiens, COLO 205, 72 h): 276 nM | A340 Compound/A340 Control (MAP-rich tubulin): 5.5

C[C@H](Nc1c(-c2c(F)cc(CCCCN(C)C)cc2F)c(Cl)nc2ncnn12)C(F)(F)F [Example 26, 5-Chloro-6-{4-[4-(dimethylamino)butyl]-2,6-difluorophenyl}-N-[(1S)-2,2,2-trifluoro-1-methylethyl][1,2,4]triazolo[1,5-a]pyrimidin-7-amine]
IC50 (COLO 205 cells; Homo sapiens, COLO 205, 72 h): 665 nM | A340 Compound/A340 Control (MAP-rich tubulin): 4.6

CCNCCCOc1cc(F)c(-c2c(Cl)nc3ncnn3c2N[C@@H](C)C(F)(F)F)c(F)c1 [Example 7, 5-Chloro-6-{4-[3-(ethylamino)propoxy]-2,6-difluorophenyl}-N-[(1S)-2,2,2-trifluoro-1-methylethyl][1,2,4]triazolo[1,5-a]pyrimidin-7-amine]
IC50 (COLO 205 cells; Homo sapiens, COLO 205, 72 h): 29 nM | A340 Compound/A340 Control (MAP-rich tubulin): 6.4

CNCCCOc1cc(F)c(-c2c(Cl)nc3ncnn3c2NCC(F)(F)F)c(F)c1 [Example 3, 5-Chloro-6-{2,6-difluoro-4-[3-(methylamino)propoxy]phenyl}-N-(2,2,2-trifluoroethyl)[1,2,4]triazolo[1,5-a]pyrimidin-7-amine]
IC50 (COLO 205 cells; Homo sapiens, COLO 205, 72 h): 25 nM | A340 Compound/A340 Control (MAP-rich tubulin): 6.7

C[C@H](Nc1c(-c2c(F)cc(NCCCN(C)C)cc2F)c(Cl)nc2ncnn12)C(F)(F)F [Example 23, N^1-[4-(5-Chloro-7-{[(1S)-2,2,2-trifluoro-1-methylethyl]amino}[1,2,4]triazolo[1,5-a]pyrimidin-6-yl)-3,5-difluorophenyl]-N^3,N^3-dimethylpropane-1,3-diamine]
IC50 (COLO 205 cells; Homo sapiens, COLO 205, 72 h): 719 nM | A340 Compound/A340 Control (MAP-rich tubulin): 4.2

CNCCCOc1cc(F)c(-c2c(Cl)nc3ncnn3c2N[C@H](C)C(F)(F)F)c(F)c1 [Example 33, 5-Chloro-6-{2,6-difluoro-4-[3-(methylamino)propoxy]phenyl}-N-[(1R)-2,2,2-trifluoro-1-methylethyl][1,2,4]triazolo[1,5-a]pyrimidin-7-amine]
IC50 (COLO 205 cells; Homo sapiens, COLO 205, 72 h): 126 nM

C[C@H](Nc1c(-c2c(F)cc(OCCN3CCOCC3)cc2F)c(Cl)nc2ncnn12)C(F)(F)F [Example 17, 5-Chloro-6-[2,6-difluoro-4-(2-morpholin-4-ylethoxy)phenyl]-N-[(1S)-2,2,2-trifluoro-1-methylethyl][1,2,4]triazolo[1,5-a]pyrimidin-7-amine]
IC50 (COLO 205 cells; Homo sapiens, COLO 205, 72 h): 245 nM | A340 Compound/A340 Control (MAP-rich tubulin): 4.8

C[C@H](Nc1c(-c2c(F)cc(OCCCN(C)C)cc2F)c(Cl)nc2ncnn12)C(F)(F)F [Example 1, 5-Chloro-6-{4-[3-(dimethylamino)propoxy]-2,6-difluorophenyl}-N-[(1S)-2,2,2-trifluoro-1-methylethyl][1,2,4]triazolo[1,5-a]pyrimidin-7-amine]
IC50 (COLO 205 cells): 41 nM | tumor growth inhibition (activity call) [1]: active

CN(C)CCCOc1cc(F)c(-c2c(Cl)nc3ncnn3c2NCC(F)(F)F)c(F)c1 [Example 4, 5-Chloro-6-{4-[3-(dimethylamino)propoxy]-2,6-difluorophenyl}-N-(2,2,2-trifluoroethyl)[1,2,4]triazolo[1,5-a]pyrimidin-7-amine]
tumor growth inhibition (activity call) [2]: inhibited the growth

C[C@H](Nc1c(-c2c(F)cc(OCCCN3CCOCC3)cc2F)c(Cl)nc2ncnn12)C(F)(F)F [Example 11, 5-Chloro-6-[2,6-difluoro-4-(3-morpholin-4-ylpropoxy)phenyl]-N-[(1S)-2,2,2-trifluoro-1-methylethyl][1,2,4]triazolo[1,5-a]pyrimidin-7-amine]
IC50 (COLO 205 cells; Homo sapiens, COLO 205, 72 h): 89 nM

C[C@H](Nc1c(-c2c(F)cc(OCCO)cc2F)c(Cl)nc2ncnn12)C(F)(F)F [Example 19, 2-[4-(5-Chloro-7-{[(1S)-2,2,2-trifluoro-1-methylethyl]amino}[1,2,4]triazolo[1,5-a]pyrimidin-6-yl)-3,5-difluorophenoxy]ethanol]
IC50 (COLO 205 cells; Homo sapiens, COLO 205, 72 h): 422 nM
